Experimental data as given in patent publication US5736556A, “Tropane-2-aldoxime derivatives as nevro transmitter reuptake inhibitors” (NeuroSearch A/S, priority 1994, dated 1998).
Structures can show the parent of a compound that is named as a salt.

Tests used:
dopamine transporter = target: T1, dopamine transporter (Rattus norvegicus, UniProt P23977); experiment: In vitro inhibition of ^3 H-WIN 35428 binding (corpus striatum); set-up: species or system rat (male Wistar); conditions: rat corpus striatum, ^3 H-WIN 35428 1 nM, 60 min at 2° C.; read-out: in vitro IC50
T1 construct: Corpus striatum from male Wistar rats (150-200 g) is homogenized; from tissue; host or cells: corpus striatum of male Wistar rats
T1 sequence (P23977 whole entry): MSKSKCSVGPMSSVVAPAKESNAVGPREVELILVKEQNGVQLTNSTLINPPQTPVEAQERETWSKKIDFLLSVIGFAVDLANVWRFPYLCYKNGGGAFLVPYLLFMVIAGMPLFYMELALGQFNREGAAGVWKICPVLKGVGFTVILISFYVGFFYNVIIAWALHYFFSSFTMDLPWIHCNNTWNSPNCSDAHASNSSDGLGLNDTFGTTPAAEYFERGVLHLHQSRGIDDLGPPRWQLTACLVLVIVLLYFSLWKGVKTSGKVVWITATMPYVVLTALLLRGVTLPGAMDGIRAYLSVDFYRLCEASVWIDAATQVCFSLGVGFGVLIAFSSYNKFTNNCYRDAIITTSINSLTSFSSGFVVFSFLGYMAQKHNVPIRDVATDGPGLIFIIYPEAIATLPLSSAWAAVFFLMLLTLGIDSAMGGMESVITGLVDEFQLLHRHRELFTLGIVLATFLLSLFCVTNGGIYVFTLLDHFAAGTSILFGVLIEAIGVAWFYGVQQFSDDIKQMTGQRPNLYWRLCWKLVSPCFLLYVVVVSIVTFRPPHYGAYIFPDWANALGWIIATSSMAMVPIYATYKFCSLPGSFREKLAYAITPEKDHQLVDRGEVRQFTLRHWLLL
From the text: The compounds of the present invention have been tested for their ability to bind to the dopamine transporter in the following tests for in vitro and in vivo inhibition of ^3 H-WIN 35428.
In vitro inhibition of ^3 H-WIN 35428 binding
Dopamine transporters/uptake sites on nerve terminals presumably function to terminate neuronal signaling by removing dopamine from the synaptic cleft. The activity or presence of the dopamine transporter integral protein can be measured in vitro with synaptosomal uptake of ^3 H-dopamine or membrane binding assays with ^3 H-ligands known to bind to the transporter.
Numerous ligands of several structural types have been reported to bind at the dopamine uptake site, but it remains questionable whether their binding sites are identical to that of cocaine.
Tissue preparation: Preparations are performed at 0°-4° C. unless otherwise indicated. Corpus striatum from male Wistar rats (150-200 g) is homogenized for 5-10 sec in 10 ml NaH2 PO4 (50 mM, pH 7.4) using an Ultra-Turrax homogenizer. The suspension is centrifuged at 27,000×g for 15 min. The supernatant is discarded and the pellet is resuspended in 50 mM NaH2 PO4, pH 7.4 (1000 ml per g of original tissue) and used for binding assays.
Assay: Aliquots of 0.5 ml tissue are added to […] of ^3 H-WIN 35428 (1 nM, final concentration), mixed and incubated for 60 min at 2° C. Non-specific binding is determined using cocaine ([…], final concentration). After incubation the samples are added 5 ml of ice-cold buffer and poured directly onto Whatman GF/C glass fibre filters under suction and immediately washed with 5 ml ice-cold buffer. The amount of radioactivity on the filters is determined by conventional liquid scintillation counting. Specific binding is total binding minus non-specific binding.
25-75% inhibition of specific binding must be obtained, before calculation of an IC50. The test value is given as IC50 (the concentration (μM) of the test substance which inhibits the specific binding of ^3 H-WIN 35428 by 50%).

[1] = test system: immobility time of mice suspended by the tail; experiment: Tail Suspension; type: in vivo, mice (female NMRI); conditions: Mus musculus, 0.5 h, oral, 30 min before test, dose reducing the immobility to 100 sec
Method: A decrease in the immobility time by mice suspended in their tail is seen after systemic administration of central stimulants and by antidepressants (Steru, L., Chermat, R., Thierry, B. & Simon, P. (1985) The tail suspension test: A new method for screening antidepressants in mice. Psychopharmacology 85:367-370.).
Female NMRI mice (20-25 g) habituated to the room (12 hours light/dark) for at least 16 hours and housed 25 per cage are used. The mice are suspended by the tail with adhesive tape to a rod 30 cm above the lab. bench 30 min after an oral administation of vehicle or drug. For the next 6 min the accumulated duration of immobility defined as no movements by the body or extremities (however head movements are not defined as movements) are noted, Six mice per dose are used.
Saline or vehicle treated mice have immobility time scores between 160-180 sec in average. An ED50 -value is calculated by graphical interpolation from at least 3 doses as the dose reducing the immobility to 100 sec.

[2] = target: T2, ^3 H-noradrenaline uptake (noradrenaline transporter) (Rattus norvegicus, UniProt Q63380); experiment: In vitro inhibition of ^3 H-noradrenaline (^3 H-NA) uptake in hippocampal synaptosomes; type: biochemical, rat (male Wistar); conditions: ^3 H-NA 1 nM, 90 min at 37° C.
T2 construct: Hippocampi from male Wistar rats (150-200 g) are homogenized; from tissue; host or cells: P2 synaptosomes of hippocampus, male Wistar rats
T2 sequence (Q63380 1-617): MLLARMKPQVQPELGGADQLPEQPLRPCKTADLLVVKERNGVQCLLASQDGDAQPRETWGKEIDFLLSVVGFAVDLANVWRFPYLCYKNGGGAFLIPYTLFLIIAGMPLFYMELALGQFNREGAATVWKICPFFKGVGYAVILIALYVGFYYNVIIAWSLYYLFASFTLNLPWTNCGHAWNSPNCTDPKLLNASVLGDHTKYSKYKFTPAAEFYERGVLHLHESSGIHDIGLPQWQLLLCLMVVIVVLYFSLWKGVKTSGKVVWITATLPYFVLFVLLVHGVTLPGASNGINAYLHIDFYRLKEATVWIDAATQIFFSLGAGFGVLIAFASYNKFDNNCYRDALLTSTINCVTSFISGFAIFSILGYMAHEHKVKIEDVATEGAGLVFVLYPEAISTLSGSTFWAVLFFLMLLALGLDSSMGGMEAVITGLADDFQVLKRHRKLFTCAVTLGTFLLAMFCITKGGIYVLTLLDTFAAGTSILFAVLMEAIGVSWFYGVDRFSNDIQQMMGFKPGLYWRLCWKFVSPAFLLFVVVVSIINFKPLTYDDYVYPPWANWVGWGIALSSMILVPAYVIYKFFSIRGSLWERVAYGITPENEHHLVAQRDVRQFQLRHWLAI
From the text: The compounds of the invention have also been tested for their ability to inhibit reuptake of dopamine(DA) noradrenalin(NA) and serotonin(5-HT) in synaptosomes.
Specific neurotransmitter transporters/uptake sites on nerve terminals presumably function to terminate neuronal signaling by removing the neurotransmitters dopamine, noradrenaline and serotonin, respectively, from the synaptic cleft. The activity of the transporter integral proteins can be measured in vitro by synaptosomal uptake of ^3 H-dopamine, ^3 H-noradrenaline and ^3 H-serotonine, respectively.
In vitro inhibition of ^3 H-noradrenaline (^3 H-NA) uptake in hippocampal synaptosomes
Tissue preparation: Preparations are performed at 0°-4° C. unless otherwise indicated. Hippocampi from male Wistar rats (150-200 g) are homogenized for 5-10 sec in 100 volumes of ice-cold 0.32M sucrose containing 1 mM pargyline using an Ultra-Turrax homogenizer. Monoamine oxidase activity will be inhibited in the presence of pargyline. The homogenate is centrifuged at 1000×g for 10 min. The resulting supernatant is then centrifuged at 27,000×g for 50 min and the supernatant is discarded. The pellet (P2) is resuspended in oxygenated (equilibrated with an atmosphere of 96% O2 : 4% CO2 for at least 30 min) Krebs-Ringer incubation buffer (2000 ml per g of original tissue) at pH 7.2 containing 122 mM NaCl, 0.16 mM EDTA, 4.8 mM KCl, 12.7 mM Na2 HPO4, 3.0 mM NaH2 PO4, 1.2 mM MgSO4, 0.97 mM CaCl2, 10 mM glucose and 1 mM ascorbic acid.
Assay: Aliquots of 4.0 ml tissue suspension are added to 100 μl of test solution and 100 μl of ^3 H-NA (1 nM, final concentration), mixed and incubated for 90 min at 37° C. Non-specific uptake is determined using desipramine (1 μM, final concentration). After incubation the samples are poured directly onto Whatman GF/C glass fibre filters under suction. […] The amount of radioactivity on the filters is determined by conventional liquid scintillation counting. Specific uptake is calculated as the difference between total uptake and non-specific uptake. […]

Row | SMILES | IC50 (dopamine transporter) | ED50 [1] | IC50 [2]
1 | CON=C[C@@H]1[C@@H](c2ccc(Cl)c(Cl)c2)C[C@@H]2CC[C@H]1N2C [(1R,2R,3S)-3-(3,4-dichlorophenyl)-tropane-2-O-methyl-aldoxime, H2 SO4] | 3 nM | 0.1 mg/kg | 1.3 nM
2 | CON=C[C@@H]1[C@@H](c2ccc(Cl)c(Cl)c2)C[C@@H]2CC[C@H]1N2 [(1R,2R,3S)-N-Normethyl-3-(3,4-dichlorophenyl)tropane-2-O-methyl-aldoxime, hydrochloride] | 6 nM | 0.95 mg/kg | 1.3 nM
